Measurements reported in patent publication US11607414B2, “Small molecule inhibitors of EGFR and PI3K” (The Regents of the University of Michigan, priority 2014, dated 2023).

Tests used:
PIK3CA = PIK3CA (Homo sapiens, UniProt P42336); test: ADAPTA universal kinase assay, PIK3CA; type: biochemical
Description: Various compounds were tested for their ability to inhibit EGFR and PIK3CA. The assays determining inhibitions are given in Example 2 Assays-Z′-LYTE® and ADAPTA.
Enzyme: The ADAPTA universal kinase assay is a homogenous, fluorescent based immunoassay for the detection of ADP. In contrast to ATP depletion assays, the ADAPTA assay is extremely sensitive to ADP formation such that a majority of the signal change occurs in the first 10-20% conversion of ATP to ADP. This makes the ADAPTA universal kinase assay ideally suited for use with low activity kinases.
The principle of the ADAPTA universal kinase assay is outlined below. The assay itself can be divided into two phases: a kinase reaction phase, and an ADP detection phase. […]
ADP formation is determined by calculating the emission ratio from the assay well. The emission ratio is calculated by dividing the intensity of the tracer (acceptor) emission by the intensity of the Eu (donor) emission at 615 nm as shown in the equation below.
Adapta® Assay Conditions' • Test Compounds: The Test Compounds are screened in 1% DMSO (final) in the well. […] ATP Km apparent is previously determined using a radiometric assay except when no substrate is available in which case an Adapta® assay is conducted. • Detection Mix: The Detection Mix is prepared in TR-FRET Dilution Buffer. […] Read on fluorescence plate reader and analyze the data.

[1] = test system: pAKT and pEGFR in HCT-116 cells; test: Effect on pAKT and pEGFR in HCT-116 cells (Western blot); type: cell-based
Description: [50 mmol/L Tris-HCl (pH 8.0), 150 mmol/L NaCl, 1% NP40, 0.5% Na-deoxycholate, 0.1% SDS, containing protease (P8340, Sigma, St. Louis, Mo.) and phosphatase (P5726, Sigma) inhibitor cocktails]. The soluble protein concentration was determined by micro-bovine serum albumin assay (Pierce, Rockford, Ill.). Protein immunodetection was done by electrophoretic transfer of SDS-PAGE separated proteins to nitrocellulose, incubation with antibody, and chemiluminescent second step detection (PicoWest, Pierce). The antibodies included EGFR, phospho-EGFR (Y1068), phospho-p42/p44, phospho-Akt (473), phospho-Akt (308), total Akt, phosho-S6 (235/236), and total S6. All antibodies were obtained from Cell Signaling Technologies (Danvers, Mass.). […]
Cell extracts were prepared by detergent lysis [25 mmol/L Tris-HCl (pH 7.6), 150 mmol/L NaCl, 1% Nonidet P-40, 10% glycerol, 1 mM EDTA, 1 mmol/L dithiothreitol (DTT), and protease and phosphatase inhibitors, rocked for 30 minutes at 4° C., and centrifuged at 14,000 rpm for 20 min at 4° C. Protein concentration was determined by BioRad Protein Assays and lysates were subsequently subjected to SDS gel electrophoresis. […] After incubation with either anti-rabbit HRP or anti-mouse HRP linked secondary antibody (Jackson ImmunoResearch Laboratories, Inc.), proteins were detected using chemiluminescence (GE Healthcare).

[2] = test system: KRAS mutant HCT-116 cells; test: HCT-116 cell viability / proliferation (Cell Titer Glo); type: cell-based
Description: Cell proliferation was determined using the Cell Titer Glo assay (Promega, Madison, Wis.). Cell lines were seeded at a density between 2,000 and 5,000 cells per well in a 96-well plate. Twenty four hours after plating, cells were dosed with varying concentrations of drug, either as a single agent or in combination. The signal for Cell Titer Glo was determined 72 or 96 hours after dosing.

[3] = test system: phosphorylation of EGFR in HCT-116 tumors; test: In vivo pharmacodynamics in subcutaneous HCT-116 tumors, pEGFR; conditions: single oral dose 100 mg/kg, two hours post-dosing
Description: (§1) However, additional synthesis of MOL-162 is needed to allow a full pharmacodynamic time course study to be carried out to determine the maximal degree of target inhibition of both targets after single and repeated daily dosing.

[4] = test system: phosphorylation of AKT in HCT-116 tumors; test: In vivo pharmacodynamics in subcutaneous HCT-116 tumors, pAKT; conditions: single oral dose 100 mg/kg, two hours post-dosing
Description: as §1

Solubility comparison = type: physicochemical

PIK3CA, sequence (P42336 whole entry): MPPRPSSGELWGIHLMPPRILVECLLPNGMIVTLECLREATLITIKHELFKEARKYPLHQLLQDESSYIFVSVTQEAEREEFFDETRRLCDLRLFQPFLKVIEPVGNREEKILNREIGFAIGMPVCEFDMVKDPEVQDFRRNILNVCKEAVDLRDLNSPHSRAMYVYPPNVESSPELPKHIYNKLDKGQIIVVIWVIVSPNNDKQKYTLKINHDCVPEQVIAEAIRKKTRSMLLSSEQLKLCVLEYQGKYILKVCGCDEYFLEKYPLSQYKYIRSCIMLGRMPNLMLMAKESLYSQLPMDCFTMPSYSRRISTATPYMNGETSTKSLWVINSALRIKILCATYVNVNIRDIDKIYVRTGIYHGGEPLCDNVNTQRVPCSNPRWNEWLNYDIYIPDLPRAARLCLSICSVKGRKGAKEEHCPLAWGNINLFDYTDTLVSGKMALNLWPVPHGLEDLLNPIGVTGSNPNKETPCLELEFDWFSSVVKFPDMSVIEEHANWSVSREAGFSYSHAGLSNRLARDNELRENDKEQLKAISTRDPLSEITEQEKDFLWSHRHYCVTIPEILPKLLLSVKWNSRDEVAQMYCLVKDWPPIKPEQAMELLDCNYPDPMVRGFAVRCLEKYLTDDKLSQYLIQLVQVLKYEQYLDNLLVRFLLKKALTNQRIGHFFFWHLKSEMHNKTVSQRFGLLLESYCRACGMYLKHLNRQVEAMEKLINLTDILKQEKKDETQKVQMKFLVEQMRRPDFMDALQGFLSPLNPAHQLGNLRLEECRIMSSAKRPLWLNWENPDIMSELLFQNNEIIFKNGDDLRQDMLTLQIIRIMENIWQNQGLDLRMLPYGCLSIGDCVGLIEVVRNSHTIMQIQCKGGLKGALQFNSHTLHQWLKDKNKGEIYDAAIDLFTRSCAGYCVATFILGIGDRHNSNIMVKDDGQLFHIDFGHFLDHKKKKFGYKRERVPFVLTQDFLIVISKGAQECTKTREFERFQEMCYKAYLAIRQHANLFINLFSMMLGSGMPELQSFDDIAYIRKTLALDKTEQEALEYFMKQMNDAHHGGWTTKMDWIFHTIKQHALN
PIK3CA, sequence (P27986 whole entry partner): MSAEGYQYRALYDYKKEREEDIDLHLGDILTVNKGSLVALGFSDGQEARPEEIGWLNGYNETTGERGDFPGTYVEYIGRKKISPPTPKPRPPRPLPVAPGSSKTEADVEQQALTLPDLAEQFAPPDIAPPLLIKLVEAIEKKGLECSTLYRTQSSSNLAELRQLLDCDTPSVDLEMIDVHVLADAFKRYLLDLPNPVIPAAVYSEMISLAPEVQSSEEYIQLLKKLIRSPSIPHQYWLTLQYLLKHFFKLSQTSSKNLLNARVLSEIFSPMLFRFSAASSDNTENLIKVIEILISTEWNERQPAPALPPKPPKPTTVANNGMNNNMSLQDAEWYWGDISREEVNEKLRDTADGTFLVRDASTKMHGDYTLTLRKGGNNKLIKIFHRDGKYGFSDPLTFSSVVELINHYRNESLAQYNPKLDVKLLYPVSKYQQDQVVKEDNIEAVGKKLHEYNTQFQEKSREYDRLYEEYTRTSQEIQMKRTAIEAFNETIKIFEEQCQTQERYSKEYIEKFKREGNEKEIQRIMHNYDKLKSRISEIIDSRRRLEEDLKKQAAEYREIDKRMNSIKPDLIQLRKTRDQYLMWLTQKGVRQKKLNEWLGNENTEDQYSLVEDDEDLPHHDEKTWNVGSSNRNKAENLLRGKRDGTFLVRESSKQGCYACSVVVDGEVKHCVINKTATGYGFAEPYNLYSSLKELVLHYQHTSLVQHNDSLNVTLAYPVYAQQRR

CS(=O)(=O)Nc1cncc(-c2ccc3ncnc(Nc4cccc(Cl)c4)c3c2)c1 [MOL-162, N-(5-(4-((3-chlorophenyl)amino)quinazolin-6-yl)pyridin-3-yl)methanesulfonamide]
inhibition of / potency against purified PIK3CA (in words) (PIK3CA): potent dual inhibition
cellular modulation of EGFR and PI3K pathways [1]: cellular modulation of both pathways
cytotoxicity [2]: cytotoxicity
phosphorylation of EGFR in tumors [3]: completely suppressed
phosphorylation of AKT in tumors [4]: not as strongly inhibited
solubility (comparison) (Solubility comparison): significantly more soluble than MOL-153
